For test [1], the system named is SKOV3 cells. The test can be described thus: time-lapse tracking of cell fate, GFP-Histone 2B SKOV3 cells. The class given is cell-based. The note with it: SKOV3, 20 random cells tracked, 0.5 μM Taxol, FIG. 3a. As for the experimental part: FIG. 3a is a bar graph showing the percentages of 20 random cells tracked to assess their fate: complete mitosis, death from mitosis, decondensation (uncertain fate) and death from decondensation.
The data used to construct the chart was obtained by time-lapse movies of cells marked with GFP-Histone 2B. Movies were collected on cell populations treated with two different mp2 stimulus compounds at various concentrations, as well as on DMSO-treated (control) cells, cells treated with 0.5 μM Taxol, and cells treated with compounds that produce a rice phenotype. […] It is believed that most of these cells would eventually die.

The test system of test [2] is 60 cancer cell lines. Conditions: NCI 60 cell line data; cited from earlier work.

For the compound `CC(=O)O[C@H]1C(=O)[C@@]2(C)[C@H]([C@H](OC(=O)c3ccccc3)[C@]3(O)C[C@H](OC(=O)[C@H](O)[C@@H](NC(=O)c4ccccc4)c4ccccc4)C(C)=C1C3(C)C)[C@]1(OC(C)=O)CO[C@@H]1C[C@@H]2O` [Taxol, paclitaxel], in test [1], the “cell fate after treatment” value was “the highest number of cells die directly from mitosis”. The “potency differences between cell types” value in test [2] is recorded as “over 3 orders of magnitude”.

These data come from patent US20070082327A1, “Cellular phenotype” (Cytokinetics, Inc. A Delaware Corporation, priority 2005, published 2007).
